Reference: PubChem BioAssay (NCI)
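Following 48 hours of exposure in 96-well plates, responses at five concentrations were used to interpolate endpoints linearly. Here, GI50 denotes the concentration required for 50% inhibition of growth. Definition used: TGI = concentration required for complete inhibition of growth.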

Assays:
Test in all cases: NCI anticancer screen, dose series, 48 h
[1] = test system: 786-0 renal
[2] = test system: A498 renal
[3] = test system: A549 NSCLC
[4] = test system: ACHN renal
[5] = test system: BT-549 breast
[6] = test system: CAKI-1 renal
[7] = test system: CCRF-CEM leukemia
[8] = test system: COLO 205 colon
[9] = test system: DU-145 prostate
[10] = test system: EKVX NSCLC
[11] = test system: HCC-2998 colon
[12] = test system: HCT-116 colon
[13] = test system: HCT-15 colon
[14] = test system: HL-60(TB) leukemia
[15] = test system: HOP-62 NSCLC
[16] = test system: HOP-92 NSCLC
[17] = test system: HS 578T breast
[18] = test system: HT29 colon
[19] = test system: IGROV1 ovarian
[20] = test system: K-562 leukemia
[21] = test system: KM12 colon
[22] = test system: LOX IMVI melanoma
[23] = test system: M14 melanoma
[24] = test system: MALME-3M melanoma
[25] = test system: MCF7 breast
[26] = test system: MDA-MB-231 breast
[27] = test system: MDA-MB-468 breast
[28] = test system: MOLT-4 leukemia
[29] = test system: NCI-H226 lung
[30] = test system: NCI-H23 lung
[31] = test system: NCI-H460 lung
[32] = test system: NCI-H522 lung
[33] = test system: NCI/ADR-RES ovarian
[34] = test system: OVCAR-3 ovarian
[35] = test system: OVCAR-4 ovarian
[36] = test system: OVCAR-5 ovarian
[37] = test system: OVCAR-8 ovarian
[38] = test system: PC-3 prostate
[39] = test system: RPMI-8226 leukemia
[40] = test system: RXF 393 renal
[41] = test system: SF-268 CNS
[42] = test system: SF-295 CNS
[43] = test system: SF-539 CNS
[44] = test system: SK-MEL-2 melanoma
[45] = test system: SK-MEL-28 melanoma
[46] = test system: SK-MEL-5 melanoma
[47] = test system: SK-OV-3 ovarian
[48] = test system: SN12C renal
[49] = test system: SNB-19 CNS
[50] = test system: SNB-75 CNS
[51] = test system: SR leukemia
[52] = test system: SW-620 colon
[53] = test system: T-47D breast
[54] = test system: TK-10 renal
[55] = test system: U251 CNS
[56] = test system: UACC-257 melanoma
[57] = test system: UACC-62 melanoma
[58] = test system: UO-31 renal

COc1ccc(CCC2NCCc3c(Br)c4c(c(OC)c32)OCO4)cc1 (stereo unspecified)
GI50 [1]: 9.75 µM
TGI [1]: > 55.8 µM
GI50 [2]: 29 µM
TGI [2]: > 55.8 µM
GI50 [3]: 4.01 µM
TGI [3]: > 55.8 µM
GI50 [4]: 8.23 µM
TGI [4]: > 55.8 µM
GI50 [5]: 7.45 µM
TGI [5]: 25.5 µM
GI50 [6]: 3.08 µM
TGI [6]: > 55.8 µM
GI50 [7]: 6.76 µM
TGI [7]: 37.3 µM
GI50 [8]: 2.84 µM
TGI [8]: 11.8 µM
GI50 [9]: 15.9 µM
TGI [9]: > 55.8 µM
GI50 [10]: 11.5 µM
TGI [10]: > 55.8 µM
GI50 [11]: 6.82 µM
TGI [11]: 15.5 µM
GI50 [12]: 1.84 µM
TGI [12]: > 55.8 µM
GI50 [13]: 3.53 µM
TGI [13]: > 55.8 µM
GI50 [14]: 2.44 µM
TGI [14]: 17.7 µM
GI50 [15]: 2.68 µM
TGI [15]: > 55.8 µM
GI50 [16]: 2.69 µM
TGI [16]: 18.2 µM
GI50 [17]: 6.63 µM
TGI [17]: 28.3 µM
GI50 [18]: 1.77 µM
TGI [18]: 8.33 µM
GI50 [19]: 3.92 µM
TGI [19]: 44.6 µM
GI50 [20]: 1.84 µM
TGI [20]: > 55.8 µM
GI50 [21]: 2.82 µM
TGI [21]: > 55.8 µM
GI50 [22]: 6.31 µM
TGI [22]: 14.5 µM
GI50 [23]: 2.05 µM
TGI [23]: > 55.8 µM
GI50 [24]: 4.98 µM
TGI [24]: 13.5 µM
GI50 [25]: 7.13 µM
TGI [25]: 26.6 µM
GI50 [26]: 2.08 µM
TGI [26]: 15.5 µM
GI50 [27]: 4.45 µM
TGI [27]: 15.9 µM
GI50 [28]: 4.46 µM
TGI [28]: > 55.8 µM
GI50 [29]: 6.71 µM
TGI [29]: > 55.8 µM
GI50 [30]: 6.79 µM
TGI [30]: 38.1 µM
GI50 [31]: 2.77 µM
TGI [31]: 21.7 µM
GI50 [32]: 1.72 µM
TGI [32]: 10.1 µM
GI50 [33]: 6.99 µM
TGI [33]: 28.4 µM
GI50 [34]: 3.37 µM
TGI [34]: 29.8 µM
GI50 [35]: 12.6 µM
TGI [35]: > 55.8 µM
GI50 [36]: 3.28 µM
TGI [36]: 36.8 µM
GI50 [37]: 11.1 µM
TGI [37]: > 55.8 µM
GI50 [38]: 6.16 µM
TGI [38]: > 55.8 µM
GI50 [39]: 2.23 µM
TGI [39]: 15.9 µM
GI50 [40]: 7.57 µM
TGI [40]: 39.4 µM
GI50 [41]: 12.5 µM
TGI [41]: > 55.8 µM
GI50 [42]: 2.36 µM
TGI [42]: 41.6 µM
GI50 [43]: 6 µM
TGI [43]: 14.3 µM
GI50 [44]: 2.99 µM
TGI [44]: 16.5 µM
GI50 [45]: 2.5 µM
TGI [45]: 12.6 µM
GI50 [46]: 3.64 µM
TGI [46]: 11.9 µM
GI50 [47]: 10.5 µM
TGI [47]: > 55.8 µM
GI50 [48]: 5.1 µM
TGI [48]: 42.7 µM
GI50 [49]: 11.1 µM
TGI [49]: > 55.8 µM
GI50 [50]: 7.93 µM
TGI [50]: 35.3 µM
GI50 [51]: 2.33 µM
TGI [51]: 31.2 µM
GI50 [52]: 1.76 µM
TGI [52]: 9.77 µM
GI50 [53]: 4.78 µM
TGI [53]: 27.3 µM
GI50 [54]: 11.8 µM
TGI [54]: > 55.8 µM
GI50 [55]: 10.7 µM
TGI [55]: > 55.8 µM
GI50 [56]: 9.2 µM
TGI [56]: > 55.8 µM
GI50 [57]: 1.34 µM
TGI [57]: 3.98 µM
GI50 [58]: 7.85 µM
TGI [58]: > 55.8 µM
